Assay [1] deals with rabbit saphenous vein. Nature of the assay: contraction of the rabbit saphenous vein rings mediated by the 5HT1-like receptors. Type of assay: cell-based. Particulars: Oryctolagus cuniculus; for Emax: read-out: Relative Emax; for EC50: read-out: pD2 (converted). The source says:
The derivatives of the present invention are, in addition, capable, like serotonin, of inducing the contraction of the rabbit saphenous vein rings mediated by the "5HT1-like " receptors.
The technique used was adapted from Van Heuven-Nolsen D. et al., Eur. J. Pharmacol. 191, 375-382 (1990) and from Martin G. R. and Mc Lennan S. J., Naunyn-Schmiedeberg's Arch. Pharmacol. 342, 111-119 (1990) and therefore makes it possible to determine a pD2 value and an Emax relative to serotonin for each product tested.

The target of assay [2] is T1, human 5HT1A (Homo sapiens, UniProt P08908).
T1 construct: expressed in transfected cells; host or cells: HeLa HA7
T1 sequence (P08908 1-422): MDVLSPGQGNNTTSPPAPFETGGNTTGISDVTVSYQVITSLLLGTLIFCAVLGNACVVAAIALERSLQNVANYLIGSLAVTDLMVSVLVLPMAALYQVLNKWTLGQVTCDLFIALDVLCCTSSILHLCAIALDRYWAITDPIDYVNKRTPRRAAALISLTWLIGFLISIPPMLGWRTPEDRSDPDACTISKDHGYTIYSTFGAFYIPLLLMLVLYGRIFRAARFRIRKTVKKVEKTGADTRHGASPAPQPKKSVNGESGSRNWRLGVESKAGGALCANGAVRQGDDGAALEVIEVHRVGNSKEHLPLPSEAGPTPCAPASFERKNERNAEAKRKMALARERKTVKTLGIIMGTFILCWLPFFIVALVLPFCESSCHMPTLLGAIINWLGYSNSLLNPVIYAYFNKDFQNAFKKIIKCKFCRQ
Nature of the assay: binding to human 5HT1A receptor (HeLa HA7 cell line). The source says:
The HeLa HA7 cell line expressing the human 5HT1A receptor was obtained from Tulco (Duke Univ., Durham, N.C., USA) and cultured according to the method of Fargin et al., J. Biol. Chem. 264, 14848 (1989).
Palmier (Neuropharmacology, 33, 67, 1994).

The target of assay [3] is T2, human 5HT1Dβ (Homo sapiens, UniProt P28222).
T2 construct: expressed in transfected cells; host or cells: Cos-7 and CHO-K1
Kind of assay: binding to human 5HT1Dβ receptor.
Procedure: (§1) The study of the binding of the derivatives of the present invention with the human 5HT1Dα, 5HT1Dβ and 5HT1A receptors was carried out according to the method described by P. Pauwels and C. Palmier (Neuropharmacology, 33, 67, 1994).
(§2) The incubation media for these binding measurements comprise 0.4 ml of cell membrane preparation, 0.05 ml of a tritiated ligand [[3H]-5CT (final concentration: 2 nM) for the 5HT1Dα and 5HT1Dβ receptors and [3H]-8OH-DPAT (final concentration: 1 nM) for the 5HT1A receptor] and 0.05 ml of the molecule to be tested (final concentrations: 0.1 to 1000 nM) or 10 μM (final concentration) of serotonin (5HT1Dα and 5HT1Dβ) or 1 μM (final concentration)of spiroxatrine (5HT1A).

Assay [4] has as its target T3, human 5HT1Dα (Homo sapiens, UniProt P28221).
T3 construct: expressed in transfected cells; host or cells: Cos-7 and CHO-K1
Kind of assay: binding to human 5HT1Dα receptor.
Procedure: as §1, §2

The mark [5] stands for this setting: Emax of the compound relative to Emax of serotonin.
Where [6] appears, read: contraction of the rabbit saphenous vein.
Setting [7] is: human receptor, HeLa HA7, [3H]-8OH-DPAT 1 nM, read-out: Ki 5HT1A.
[8] abbreviates: human receptor, [3H]-5CT 2 nM, read-out: Ki 5HT1Dβ.

Counter-ions that a name gives are not always drawn. Like-named read-outs stand apart in the source and are kept apart here.

T3 sequence (P28221 whole entry): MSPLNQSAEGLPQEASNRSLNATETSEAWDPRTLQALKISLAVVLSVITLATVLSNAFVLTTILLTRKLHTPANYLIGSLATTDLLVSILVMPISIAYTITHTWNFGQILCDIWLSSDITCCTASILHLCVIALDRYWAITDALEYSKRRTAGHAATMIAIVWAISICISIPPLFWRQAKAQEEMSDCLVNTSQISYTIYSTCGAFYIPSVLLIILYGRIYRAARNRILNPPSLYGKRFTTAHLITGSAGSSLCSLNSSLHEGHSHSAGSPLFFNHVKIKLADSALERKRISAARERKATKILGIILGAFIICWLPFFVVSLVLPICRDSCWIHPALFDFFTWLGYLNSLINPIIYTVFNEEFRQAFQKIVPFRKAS
T2 sequence (P28222 whole entry): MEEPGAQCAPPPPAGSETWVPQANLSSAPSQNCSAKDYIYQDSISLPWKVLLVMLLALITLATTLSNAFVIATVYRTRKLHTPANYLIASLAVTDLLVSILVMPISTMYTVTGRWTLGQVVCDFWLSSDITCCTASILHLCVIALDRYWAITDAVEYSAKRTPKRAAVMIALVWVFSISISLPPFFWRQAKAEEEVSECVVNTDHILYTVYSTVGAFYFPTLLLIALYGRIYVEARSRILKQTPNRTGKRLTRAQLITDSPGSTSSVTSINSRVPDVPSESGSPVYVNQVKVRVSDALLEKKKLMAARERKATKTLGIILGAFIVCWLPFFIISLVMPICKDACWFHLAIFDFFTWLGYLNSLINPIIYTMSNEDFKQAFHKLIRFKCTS

Consider `CNS(=O)(=O)CCc1ccc2[nH]cc(C3CCN(C)CC3)c2c1` [Naratriptan, reference compound], for which the maximal effect (Emax) in assay [1] (setting [5]) came to 100%. Further, in assay [1] (setting [6]), the EC50 is 2880 nM. In addition, the Ki in assay [2] (setting [7]) stood at 46 nM; in assay [3] (setting [8]), 2 nM; in assay [4] (human receptor, [3H]-5CT 2 nM, read-out: Ki 5HT1Dα) it was 1.6 nM.
`CC(=O)OCCCCOc1ccc2[nH]cc(CCN)c2c1` [Example 23, 4-[3-(2-Aminoethyl)-1H-indol-5-yloxy]butylacetate hydrochloride]: the Ki in assay [2] came to 40 nM; in assay [3], 0.4 nM; in assay [4], 0.9 nM.
For the compound `CNS(=O)(=O)Cc1ccc2[nH]cc(CCN(C)C)c2c1` [Sumatriptan, reference compound], the Emax in assay [1] (setting [5]) came out at 126%. Also, the EC50 in assay [1] (setting [6]) was 1780 nM.
Turning to `CCOC(=O)CCCCOc1ccc2[nH]cc(CCN)c2c1` [Example 13, Ethyl 5-[3-(2-aminoethyl)-1H-indol-5-yloxy]pentanoate hydrochloride], in assay [1], the Emax turned out to be 120%. The EC50 in assay [1] (setting [6]) is 309 nM.
Consider `CCNC(=O)CCCCCOc1ccc2[nH]cc(CCN)c2c1` [Example 20, 6-[3-(2-Aminoethyl)-1H-indol-5-yloxy]-N-ethylhexanamide hydrochloride], for which the Ki was found to be 46.5 nM in assay [2] (read-out: Ki 5HT1A, human receptor, HeLa HA7, [3H]-8OH-DPAT 1 nM); 1.1 nM in assay [3] (read-out: Ki 5HT1Dβ, human receptor, [3H]-5CT 2 nM); 2 nM in assay [4] (read-out: Ki 5HT1Dα, human receptor, [3H]-5CT 2 nM).
Regarding `CC(C)OC(=O)CCCCCOc1ccc2[nH]cc(CCN)c2c1` [Example 16, Isopropyl 6-[3-(2-aminoethyl)-1H-indol-5-yloxy]hexanoate hydrochloride], the Emax in assay [1] amounted to 136%. Further, the EC50 in assay [1] (setting [6]) was 240 nM. Moreover, the Ki was 9 nM in assay [2], 0.7 nM in assay [3] and 1.5 nM in assay [4].
Consider `CCOC(=O)CCCOc1ccc2[nH]cc(CCN)c2c1` [Example 12, Ethyl 4-[3-(2-aminoethyl)-1H-indol-5-yloxy)-butyrate hydrochloride], for which the Emax in assay [1] is 80%. Further, the EC50 in assay [1] (setting [6]) was 692 nM.
As for `NCCCCCCOc1ccc2[nH]cc(CCN)c2c1` [Example 18, 6-[3-(2-Aminoethyl)-1H-indol-5-yloxy]hexylamine hydrochloride], the results for the Ki in assay [2], in assay [3] and in assay [4] were 78.6 nM, 2 nM and 2.4 nM, respectively.
Turning to `CS(=O)(=O)NCCCCCCOc1ccc2[nH]cc(CCN)c2c1` [Example 19, N-{6-[3-(2-Aminoethyl)-1H-indol-5-yloxy]hexyl}methanesulfonamide hydrochloride], in assay [1], the Emax worked out at 100%. Also, the EC50 in assay [1] is 15.8 nM. Moreover, the results for the Ki in assay [2], in assay [3] and in assay [4] were 11.5 nM, 0.7 nM and 1.1 nM, respectively.
Take `N#CCCCCCOc1ccc2[nH]cc(CCN)c2c1` [Example 17, 6-[3-(2-Aminoethyl)-1H-indol-5-yloxy]hexanitrile hydrochloride]: the values for the Ki in assay [2] (setting [7]), in assay [3] (setting [8]) and in assay [4] were 24.3 nM, 2.6 nM and 2.2 nM, respectively.

For the origin of these results see patent US5852049A, “Aromatic ethers derived from indoles which are useful as medicaments” (Pierre Fabre Medicament, priority 1994, dated 1998).
